Usually IC50 stands for the midpoint of a concentration-inhibition curve.

The record followed here is publication PMC6141003 (Biochimie, 2017).

Assay [1] deals with T1, GLUT1 (Mus musculus, UniProt P17809).
T1 sequence (P17809 1-492): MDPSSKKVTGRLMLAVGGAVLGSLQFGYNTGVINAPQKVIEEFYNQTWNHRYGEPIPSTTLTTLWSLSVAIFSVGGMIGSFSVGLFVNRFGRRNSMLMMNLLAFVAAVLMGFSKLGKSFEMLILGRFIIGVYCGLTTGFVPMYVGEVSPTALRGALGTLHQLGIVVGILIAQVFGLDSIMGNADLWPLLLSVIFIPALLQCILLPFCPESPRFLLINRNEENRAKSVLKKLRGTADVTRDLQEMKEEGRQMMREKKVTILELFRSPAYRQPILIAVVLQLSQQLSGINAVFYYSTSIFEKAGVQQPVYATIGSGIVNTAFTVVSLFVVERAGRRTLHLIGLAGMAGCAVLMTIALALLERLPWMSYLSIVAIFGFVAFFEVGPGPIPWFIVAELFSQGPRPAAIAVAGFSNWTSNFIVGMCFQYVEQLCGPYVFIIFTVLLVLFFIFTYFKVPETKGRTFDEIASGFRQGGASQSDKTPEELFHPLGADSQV
Briefly: [3H]-2-deoxyglucose uptake in L929 fibroblasts. Type of assay: cell-based.

In assay [2] the target is T1, GLUT1. Kind of assay: dose-dependent competition of [3H]-2DG uptake in L929 fibroblasts. It is filed as cell-based.

Regarding `Cn1c(=O)c2c(ncn2C)n(C)c1=O` [caffeine], the IC50 in assay [1] is around 1400 µM.

Consider `OC[C@H]1OC(O)[C@H](O)[C@@H](O)[C@@H]1O` (some centres unmarked) [glucose], for which the “dose-dependent competition of [3H]-2DG uptake in L929 fibroblasts” value in assay [2] was “glucose reduces 2DG uptake in a dose-dependent manner, and that caffeine adds to the inhibitory effects of glucose”.
